Absorption spectrum data for one molecule are collected here from paper PMC10945809 (Proceedings of the National Academy of Sciences of the …, 2024).

This assay deals with T1, human microsomal FMO1 (Homo sapiens, UniProt Q01740).
T1 sequence (Q01740 2-532): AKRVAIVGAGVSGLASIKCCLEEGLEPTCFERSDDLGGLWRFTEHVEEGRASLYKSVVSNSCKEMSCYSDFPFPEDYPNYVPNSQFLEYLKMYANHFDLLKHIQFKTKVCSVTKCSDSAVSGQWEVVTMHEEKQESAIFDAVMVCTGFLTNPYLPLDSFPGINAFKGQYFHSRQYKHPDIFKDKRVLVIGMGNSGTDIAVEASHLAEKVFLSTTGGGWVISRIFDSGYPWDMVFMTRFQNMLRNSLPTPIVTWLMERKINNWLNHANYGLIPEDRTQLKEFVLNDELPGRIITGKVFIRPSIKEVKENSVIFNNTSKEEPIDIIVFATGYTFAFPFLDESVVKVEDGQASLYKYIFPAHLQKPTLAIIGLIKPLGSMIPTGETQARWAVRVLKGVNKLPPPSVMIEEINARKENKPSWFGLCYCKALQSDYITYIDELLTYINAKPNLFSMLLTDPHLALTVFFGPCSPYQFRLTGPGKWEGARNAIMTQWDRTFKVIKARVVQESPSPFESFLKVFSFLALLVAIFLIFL
The assay can be described thus: absorption spectrum. As to conditions: PBS; microsomal FMO1 as positive control. The format is biochemical.

As to `Cc1cc2nc3c(=O)[nH]c(=O)nc-3n(C[C@H](O)[C@H](O)[C@H](O)COP(=O)(O)OP(=O)(O)OC[C@H]3O[C@@H](n4cnc5c(N)ncnc54)[C@H](O)[C@@H]3O)c2cc1C` [FAD], the absorption spectrum result was “FAD bound to human microsomal FMO1 (orange)”.
